Laboratory results reported in patent US12174192B2, “Methods for detecting and treating cancers having adenosine pathway activation” (Corvus Pharmaceuticals, Inc., priority 2018, dated 2024).
Entries after “also recorded” stand apart in the source; their conditions may differ.

Columns and labels:
PBMCs = test: CXCL5 protein ELISA in culture supernatants of PBMCs treated with NECA +/- CPI-444; assay type: cell-based; details: PBMCs from two human donors; NECA then CPI-444 then anti-CD3/CD28; two days after activation
Description: Expression of CXCL5 was determined by ELISA 2 days after activation.
FIGS. 2B and 2C show the response of PBMCs from two different donors to NECA+/−CPI-444 treatment. DMSO was used as vehicle control. […] This control helps establish that the induction of CXCL5 is specific to signaling through adenosine receptors.
NECA activation of CXCL5 protein expression was evaluated. PBMCs were harvested from two different human donors. […] CPI-444 (Corvus Pharmaceuticals) is an antagonist of the adenosine A2A receptor. CXCL5 protein in the culture supernatants was evaluated by ELISA two days after activation. CXCL5 expression is activated by NECA. […] This establishes that the induction of CXCL5 is specific to signaling through adenosine receptors.

[1] = test system: adenosine-modulated genes and proteins; test: Adenosine-induced genes and proteins in tumor biopsies from treated patients; parameters: species or system human; details: in vitro and in vivo in tumor biopsies from treated patients
Excerpt: Expression of a subset of genes that are modulated by adenosine levels correlates with tumor regression in the ongoing Ph 1/1b trial with CPI-444 treatment in RCC. […] A2AR agonists induce a specific gene signature dominated by immunosuppressive mediators of MDSC and monocyte/macrophage biology. […] These genes and proteins may identify patients with high levels of adenosine and be used as biomarkers for patient selection to select patients most likely to respond to therapy with agents that antagonize adenosine production or signaling.

IL6 and IL8 = test: Plasma IL6 and IL8 protein levels in RCC patients after CPI-444 treatment; assay type: in vivo, human; details: RCC patients with reduction in tumor size (best response); after treatment (4 weeks)
advanced cancers = test: Ongoing phase 1/1b trial of CPI-444 monotherapy in patients with advanced cancers; assay type: in vivo, human
Excerpt: “Adenosine receptor antagonist” refers to a molecule that inhibits activity of adenosine receptors (e.g. A2A or A2B receptors), typically through direct action. Adenosine receptors antagonists can be small or large molecule antagonists. In embodiments, CPI-444 is an example A2A receptor antagonist. […] CPI-444 is described, for example, in PCT Patent Publication No. WO 2017/112917; each of which is incorporated herein by reference in its entirety.

renal tumors (RCC) = test: Change in tumor size in renal cancer patients treated with CPI-444 (Ph 1/1b trial); assay type: in vivo, human
Description: Methods: Tumor biopsies obtained at trial screening from patients with RCC (n=30) were analyzed for gene expression profiles with the Nanostring PanCancer Immune Panel that included 770 markers of immune activity and inflammation. The gene expression correlation (Spearman) matrix was hierarchically clustered (Ward's method) to identify modules of genes that were co-expressed across tumors. Gene expression was normalized to housekeeper genes included in the PanCancer Immune Panel. Gene cluster expression intensity was compared between patients with evaluable best change in tumor size ≤0 (n=8) vs >0 (n=15). The composite gene expression score was calculated as the average of the Log2 of expression values (normalized Nanostring counts) for seven genes (CXCL1, CXCL2, CXCL3, CXCL5, IL1B, IL8, SERPINB2) shown to be induced in vitro in normal peripheral blood mononuclear cells by adenosine. Protein expression was determined from blood (plasma) samples from baseline (untreated) renal cell carcinoma (RCC) patients using MesoScale assay.
Renal cancer patients were treated with CPI-444, and change in tumor size was measured.

A2AR = test: In vitro A2AR stimulation gene signature and its inhibition by CPI-444; assay type: cell-based, human; details: transcript and protein level
Description: RNA purified from normal, healthy human peripheral blood mononuclear cells (PBMCs) treated with 5′-N-ethylcarboxamidoadenosine (NECA) and activated with anti-CD3/CD28 antibody were analyzed by NanoString hybridization-based quantification (NanoString Technologies, Inc.). […] Each dot represents the expression level of a specific gene. Dot shade represents the concentration of NECA used and/or different PBMC donors. […] Increases in monocyte/macrophage inflammatory mediators such as IL-1b and CCL2,3,7,8, 20 were also observed, as were increases in SERPINB2, S100A8, PTGS2, THBS1. Expression of CXCL10 and GZMB were decreased, consistent with a suppressed IFNg response. […] A2AR agonists induce a specific gene signature (increase in a certain subset of genes and/or decrease in a second subset of genes) dominated by immunosuppressive mediators of MDSC and monocyte/macrophage biology. Inhibition of these genes by CPI-444 are observed. These gene signatures may be used as biomarkers for patient selection.

## Cc1ccc(-c2nc(N)nc3c2nnn3Cc2cccc(CO[C@H]3CCOC3)n2)o1 [CPI-444, (S)-7-(5-methylfuran-2-yl)-3-((6-(((tetrahydrofuran-3-yl)oxy)methyl)pyridin-2-yl)methyl)-3H-[1,2,3]triazolo[4,5-d]pyrimidin-5-amine]
PBMCs
  NECA-induced increase in CXCL5 protein (ELISA), effect of added CPI-444: blocked
[1]
  adenosine agonist-induced genes and proteins, effect of CPI-444: Inhibition of these genes and proteins
IL6 and IL8
  IL6 and IL8 levels in blood plasma after treatment: reduced; also recorded: decreased
Advanced cancers
  anti-tumor activity as a monotherapy: demonstrated anti-tumor activity
Renal tumors (RCC); RCC patients, vs low levels of CD68 or CD163
  response to CPI-444 monotherapy, patients with high CD68 or high CD163 gene levels in the tumors: more likely to respond
Renal tumors (RCC); ongoing Ph 1/1b trial, RCC, vs patients with low expression
  tumor regression with CPI-444, patients with high expression of adenosine-modulated gene subset: more likely to have tumor regression
Renal tumors (RCC); patients with RCC, two subjects
  reduction in tumor size (best overall change) after CPI-444 treatment: greater than 30%
Renal tumors (RCC); renal cancer patients
  change in tumor size after CPI-444 treatment, tumors with low composite gene expression score: tumor regression was not observed
  response to CPI-444, patients with high CCL20 and low CX3CL1 plasma protein levels: more likely to respond
Renal tumors (RCC); renal cancer patients, four patients
  change in tumor size after CPI-444 treatment, tumors with high composite gene expression score: reduction in tumor size
A2AR
  A2AR stimulation-induced gene expression changes, effect of CPI-444: inhibited these changes
